Patent US20250230438A1, “NEURAL REPAIR THROUGH INHIBITION OF REG3A SIGNALING” (UNIVERSITY OF SOUTH CAROLINA, priority 2023, published 2025)
Entries after “also recorded” stand apart in the source; their conditions may differ.

B1: recREG3A: recombinant human REG3A (recREG3A) (protein)
chain: EDFQKEVPSPRTSCPMGYKAYRSHCYALVMTPKSWFQADLVCQKRPSGHLVSILSGGEASFVSSLVNGRVDNYQDIWIGLHDPTMGQQPNGGGWEWSNSDVLNYLNWDGDPSSTVNRGHCGSLTASSGFLKWGDYYCDGTLPFVCKFKQ

Experiments:
[1] = system: KHSRP; assay: Axonal KHSRP protein levels in DRG cultures; assay type: cell-based, mouse; details: for effect on recREG3A-dependent increase in axonal KHSRP: co-treatment with recREG3A
Text: (§1) Specifically, it was observed that KHSRP protein increases in regenerating sciatic nerve axons, which promotes decay of regeneration-associated mRNAs including Gap43 and Snap25 mRNAs. Thus, herein it was investigated whether REG3A effects might converge on Khsrp mRNA.

[2] = system: dorsal root ganglia (DRG) neurons; assay: Axon growth and branching in dissociated adult mouse DRG cultures; assay type: cell-based; details: for effect on recREG3A-induced decrease in axon growth / effect on recREG3A-induced increase in axon branching: co-treatment with recREG3A
Text: Previously, it was shown that Reg3A mRNA expression increases after nerve injury and the mRNA is transported into regenerating peripheral nerve axons and spinal cord axon. The spinal cord model used a peripheral nerve graft to support regenerating of ascending spinal cord axons after transection. To determine if REG3A protein might affect axon growth, whether the dorsal root ganglia (DRG) neurons respond to recombinant human REG3A (recREG3A) was investigated.
shRNA depletion of Reg3A mRNA was used to determine if the endogenous REG3A protein reduces axon growth.
as §1

[3] = system: eIF2α^PS51; assay: eIF2α^PS51 immunofluorescence in growth cones of DRG cultures; assay type: cell-based; details: acute treatment of adult mouse DRG cultures
Text: Previously, it was observed that axonal Khsrp mRNA translation is increased by activation of the PERK and subsequent PERK-dependent serine 51 phosphorylation of the translation initiation factor eIF2a. […] PERK inhibition similar reduced the REG3A-dependent translation of axonal GFP^MYR5′/3′khsrp in FRAP assays (FIG. 9C).

[4] = system: growth cone calcium; assay: Axonal/growth cone calcium by GCaMP fluorescence in DRG spot cultures; assay type: cell-based, mouse; details: DRG spot cultures with AAV9-GCaMP
Text: The findings above provide circumstantial but not direct evidence for elevated axoplasmic calcium as a key regulator of REG3A's effects on axons. As such, herein it was investigated whether REG3A increases calcium levels in DRG neurons using genetically encoded GCaMP fluorescent calcium indicator in DRG spot cultures. For this, DRG spot cultures were co-transduced with AAV9-GCaMP. […] Axonal calcium levels are known to increase immediately after axotomy but based on translational regulation of different axonal mRNAs that respond to elevated vs. normal axonal calcium levels, the axotomy induced increase in calcium returns to pre-injury levels within 16 hours after axotomy to allow translation of axonal mRNAs encoding regeneration-associated proteins. Thus, intra-axonal calcium levels in regenerating axons were monitored beginning at 16 hours after axotomy. The regenerating axons show an oscillatory GCaMP signal with broad peaks approximately every 50-70 min over a 4-hour period in AAV9-shCntl-transduced DRG spot cultures (FIG. 8E).

| Molecule | effect on recREG3A-dependent increase in axonal KHSRP [1] | effect on recREG3A-induced decrease in axon growth [2] | effect on recREG3A-induced increase in axon branching [2] | KHSRP levels in distal axons ([1]; recREG3A application) | eIF2α^PS51 levels in growth cones [3] | axon branching ([2]; bath application of recREG3A, adult mouse sensory neurons) | axon growth ([2]; bath application of recREG3A, adult mouse sensory neurons, 24-hour exposure) | growth cone / intra-axonal calcium levels (GCaMP) [4] | growth cone / intra-axonal calcium levels (GCaMP) ([4]; listed as RecREG3A) |
| --- | --- | --- | --- | --- | --- | --- | --- | --- | --- |
| CC(=O)OCOC(=O)CN(CC(=O)OCOC(C)=O)c1ccccc1OCCOc1ccccc1N(CC(=O)OCOC(C)=O)CC(=O)OCOC(C)=O [BAPTA-AM] | attenuated | blocked | blocked | – | – | – | – | – | – |
| O=C(O)CN(CC(=O)O)c1ccccc1OCCOc1ccccc1N(CC(=O)O)CC(=O)O [BAPTA] | also attenuated | – | – | – | – | – | – | – | – |
| C[C@@H]1C[C@@H]([C@H](O)CC2CC(=O)NC(=O)C2)C(=O)[C@@H](C)C1 [cycloheximide] | did not occur | prevented | prevented | – | – | – | – | – | – |
| B1 | – | – | – | increased KHSRP levels in distal axons | increased eIF2α^PS51 levels in growth cones | increased axon branching | reduced axon growth; also recorded: decreases axon extension | significantly increased growth cone calcium | increases |
